“And” between values parts separate entries of the source, which are not always exact repeats. Identical values can stand only once. Where a SMILES comes first, the peptide text is derived from it. [ ]: non-standard residue; d: D form. d2Nal = N[C@H](Cc1ccc2ccccc2c1)C(=O)O; Orn = NCCC[C@H](N)C(=O)O
Legend:
[1] = molecular target: T1, Endothelin receptor (Rattus norvegicus, UniProt P26684+P21451); experiment: Binding affinity against Endothelin receptor from rat heart ventricle; format: protein assay
T1 sequence (P26684 whole entry): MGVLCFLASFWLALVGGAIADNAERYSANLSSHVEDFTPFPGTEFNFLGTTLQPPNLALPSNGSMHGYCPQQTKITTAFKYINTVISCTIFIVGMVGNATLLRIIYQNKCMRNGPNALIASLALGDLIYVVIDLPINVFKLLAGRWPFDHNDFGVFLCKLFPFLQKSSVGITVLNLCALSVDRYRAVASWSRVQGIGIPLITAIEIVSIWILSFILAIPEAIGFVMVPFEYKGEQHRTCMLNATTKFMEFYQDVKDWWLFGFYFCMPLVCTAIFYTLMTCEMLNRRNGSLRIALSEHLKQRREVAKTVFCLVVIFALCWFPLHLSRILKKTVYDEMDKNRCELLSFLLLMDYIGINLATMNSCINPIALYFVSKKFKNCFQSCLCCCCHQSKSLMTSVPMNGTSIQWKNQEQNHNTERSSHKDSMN
T1 sequence (P21451 whole entry): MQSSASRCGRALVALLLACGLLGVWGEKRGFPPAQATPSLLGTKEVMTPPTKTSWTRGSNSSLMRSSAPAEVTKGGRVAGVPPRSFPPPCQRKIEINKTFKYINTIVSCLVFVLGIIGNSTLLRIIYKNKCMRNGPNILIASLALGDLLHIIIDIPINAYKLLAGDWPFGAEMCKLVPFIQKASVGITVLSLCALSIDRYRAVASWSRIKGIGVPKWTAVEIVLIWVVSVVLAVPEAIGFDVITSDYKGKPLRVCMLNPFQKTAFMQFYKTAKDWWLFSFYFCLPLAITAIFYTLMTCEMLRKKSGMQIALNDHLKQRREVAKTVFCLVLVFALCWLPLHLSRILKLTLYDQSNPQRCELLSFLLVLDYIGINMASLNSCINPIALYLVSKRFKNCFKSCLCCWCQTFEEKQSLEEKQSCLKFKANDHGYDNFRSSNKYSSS

[2] = molecular target: T2, Endothelin receptor type B (Rattus norvegicus, UniProt P21451); experiment: Effective concentration against Endothelin B receptor from rat cerebellum; format: tissue-based
T2 sequence (P21451 whole entry): T1 sequence (P21451 whole entry)

[3] = species: Oryctolagus cuniculus; experiment: Inhibition of ET-1 stimulated arachidonic acid release in rabbit renal artery vascular smooth muscle cells; format: functional

Row | Compound | IC50 [1] | IC50 [2] [µM] | IC50 [3] [µM]
1 | CC[C@H](C)[C@H](NC(=O)[C@H](CC(=O)O)NC(=O)[C@@H](CC(C)C)NC(=O)[C@H](Cc1c[nH]cn1)NC(C)=O)C(=O)N[C@H](C(=O)N[C@@H](Cc1c[nH]c2ccccc12)C(=O)O)[C@@H](C)CC | 39 µM | – | –
2 | CC[C@H](C)[C@H](NC(=O)[C@H](CC(=O)O)NC(=O)[C@H](CC(C)C)NC(=O)[C@H](Cc1c[nH]cn1)NC(C)=O)C(=O)N[C@H](C(=O)N[C@H](Cc1c[nH]c2ccccc12)C(=O)O)[C@@H](C)CC | > 50 µM | – | –
3 | CC[C@H](C)[C@H](NC(=O)[C@H](CC(=O)O)NC(=O)[C@H](CC(C)C)NC(=O)[C@@H](Cc1ccccc1)NC(C)=O)C(=O)N[C@@H](CCC(=O)O)C(=O)N[C@@H](Cc1c[nH]c2ccccc12)C(=O)O | 5.2 µM | – | –
4 | CC[C@H](C)[C@H](NC(=O)[C@H](CC(=O)O)NC(=O)[C@H](CC(C)C)NC(=O)[C@@H](Cc1c[nH]cn1)NC(C)=O)C(=O)N[C@H](C(=O)N[C@@H](Cc1c[nH]c2ccccc12)C(=O)O)[C@@H](C)CC | 4.1 µM and 4.5 µM | 9.1 | –
5 | CC[C@H](C)[C@H](NC(=O)[C@H](CC(=O)O)NC(=O)[C@H](CCC(=O)O)NC(=O)[C@@H](Cc1ccccc1)NC(C)=O)C(=O)N[C@@H](Cc1c[nH]c2ccccc12)C(=O)O | 0.74 µM | 0.84 | 0.6
6 | CC[C@H](C)[C@H](NC(=O)[C@H](CC(=O)O)NC(=O)[C@H](CC(C)C)NC(=O)[C@@H](Cc1ccccc1)NC(C)=O)C(=O)N[C@@H](CCCCN)C(=O)N[C@@H](Cc1c[nH]c2ccccc12)C(=O)O | > 50 µM | – | –
7 | CC[C@H](C)[C@H](NC(=O)[C@H](CCCCN)NC(=O)[C@H](CC(=O)O)NC(=O)[C@H](CC(C)C)NC(=O)[C@@H](Cc1ccccc1)NC(C)=O)C(=O)N[C@@H](Cc1c[nH]c2ccccc12)C(=O)O | > 50 µM | > 10 | –
8 | CC[C@H](C)[C@H](NC(=O)[C@H](CC(=O)O)NC(=O)[C@H](CC(C)C)NC(=O)[C@H](N)Cc1ccccc1)C(=O)N[C@H](C(=O)N[C@@H](Cc1c[nH]c2ccccc12)C(=O)O)[C@@H](C)CC | 12.4 µM | 2.6 | –
9 | CC[C@H](C)[C@H](NC(=O)[C@H](Cc1ccc(O)cc1)NC(=O)[C@@H](Cc1ccccc1)NC(C)=O)C(=O)N[C@H](C(=O)N[C@@H](Cc1c[nH]c2ccccc12)C(=O)O)[C@@H](C)CC | – | > 10 | –
10 | CC[C@H](C)[C@H](NC(=O)[C@H](CC(=O)O)NC(=O)[C@H](CC(C)C)NC(=O)[C@@H](Cc1ccccc1)NC(C)=O)C(=O)N[C@H](C(=O)N[C@@H](Cc1csc2ccccc12)C(=O)O)[C@@H](C)CC | 3.8 µM | 9.8 | > 10
11 | CC[C@@H](C)[C@@H](NC(=O)[C@H](CC(=O)O)NC(=O)[C@H](CC(C)C)NC(=O)[C@H](Cc1c[nH]cn1)NC(C)=O)C(=O)N[C@H](C(=O)N[C@@H](Cc1c[nH]c2ccccc12)C(=O)O)[C@@H](C)CC | 169 µM | – | –
12 | CC[C@H](C)[C@H](NC(=O)[C@H](CCCCN)NC(=O)[C@H](CC(C)C)NC(=O)[C@@H](Cc1ccccc1)NC(C)=O)C(=O)N[C@H](C(=O)N[C@@H](Cc1c[nH]c2ccccc12)C(=O)O)[C@@H](C)CC | 12 µM | > 10 | –
13 | CC[C@H](C)[C@H](NC(=O)[C@H](CCC(=O)O)NC(=O)[C@H](CC(=O)O)NC(=O)[C@H](CC(C)C)NC(=O)[C@@H](Cc1ccccc1)NC(C)=O)C(=O)N[C@@H](Cc1c[nH]c2ccccc12)C(=O)O | 9 µM | > 10 | > 10
14 | CC[C@H](C)[C@H](NC(=O)[C@H](CC(=O)O)NC(=O)[C@H](CC(C)C)NC(=O)[C@@H](N)Cc1ccccc1)C(=O)N[C@H](C(=O)N[C@@H](Cc1c[nH]c2ccccc12)C(=O)O)[C@@H](C)CC | – | 2.6 | –
15 | CC[C@H](C)[C@H](NC(=O)[C@H](CC(=O)O)NC(=O)[C@H](CC(C)C)NC(=O)[C@@H](Cc1ccc2ccccc2c1)NC(C)=O)C(=O)N[C@H](C(=O)N[C@@H](Cc1c[nH]c2ccccc12)C(=O)O)[C@@H](C)CC (Ac-[d2Nal]LDIIW-OH) | – | – | 1.9
16 | CC[C@H](C)[C@H](NC(=O)[C@@H](Cc1ccccc1)NC(C)=O)C(=O)N[C@@H](Cc1c[nH]c2ccccc12)C(=O)O (Ac-[dF]-Ile-Trp-OH) | – | > 10 | –

Row | Compound | IC50 [1] | IC50 [2] [µM] | IC50 [3] [µM]
17 | CC[C@H](C)[C@H](NC(=O)[C@H](CC(=O)O)NC(=O)[C@H](C)NC(=O)[C@@H](Cc1ccccc1)NC(C)=O)C(=O)N[C@H](C(=O)N[C@@H](Cc1c[nH]c2ccccc12)C(=O)O)[C@@H](C)CC (Ac-[dF]ADIIW-OH) | 0.42 µM | 0.29 | 0.33
18 | CC[C@H](C)[C@H](NC(=O)[C@H](Cc1ccccc1)NC(=O)[C@H](CC(=O)O)NC(=O)[C@@H](Cc1ccccc1)NC(C)=O)C(=O)N[C@@H](Cc1c[nH]c2ccccc12)C(=O)O (Ac-[dF]DFIW-OH) | – | 4.6 | –
19 | CC[C@H](C)[C@H](NC(=O)[C@H](CC(=O)O)NC(=O)[C@@H](Cc1ccccc1)NC(C)=O)C(=O)N[C@H](C(=O)N[C@@H](Cc1c[nH]c2ccccc12)C(=O)O)[C@@H](C)CC (Ac-[dF]DIIW-OH) | 2.15 µM | – | –
20 | CC[C@H](C)[C@H](NC(=O)[C@@H](NC(=O)[C@@H](Cc1ccccc1)NC(C)=O)[C@@H](C)CC)C(=O)N[C@@H](Cc1c[nH]c2ccccc12)C(=O)O (Ac-[dF]IIW-OH) | – | > 10 | –
21 | CC[C@H](C)[C@H](NC(=O)[C@H](C)NC(=O)[C@H](CC(=O)O)NC(=O)[C@H](CC(C)C)NC(=O)[C@@H](Cc1ccccc1)NC(C)=O)C(=O)N[C@@H](Cc1c[nH]c2ccccc12)C(=O)O (Ac-[dF]LDAIW-OH) | 1.61 µM | 0.45 | 1.5
22 | CC[C@H](C)[C@H](NC(=O)[C@H](CC(=O)O)NC(=O)[C@H](CC(C)C)NC(=O)[C@@H](Cc1ccccc1)NC(C)=O)C(=O)N[C@@H](C)C(=O)N[C@@H](Cc1c[nH]c2ccccc12)C(=O)O (Ac-[dF]LDIAW-OH) | 6.83 µM | > 10 | > 10
23 | CC[C@H](C)[C@H](NC(=O)[C@H](CC(=O)O)NC(=O)[C@H](CC(C)C)NC(=O)[C@@H](Cc1ccccc1)NC(C)=O)C(=O)N[C@H](C(=O)N[C@@H](Cc1c[nH]c2ccccc12)C(=O)O)[C@@H](C)CC (Ac-[dF]LDIIW-OH) | 0.74 µM | 2 | –
24 | CC[C@H](C)[C@H](NC(=O)[C@H](CC(=O)O)NC(=O)[C@H](CC(C)C)NC(=O)[C@@H](Cc1ccccc1)NC(C)=O)C(=O)N[C@H](C(=O)N[C@@H](Cc1ccc(O)cc1)C(=O)O)[C@@H](C)CC (Ac-[dF]LDIIY-OH) | – | 0.15 | –
25 | CC[C@H](C)[C@H](NC(=O)[C@H](CC(=O)O)NC(=O)[C@H](CC(C)C)NC(=O)[C@@H](Cc1ccccc1)NC(C)=O)C(=O)N[C@@H](Cc1c[nH]c2ccccc12)C(=O)O (Ac-[dF]LDIW-OH) | 24.5 µM | > 10 | –
26 | CC[C@H](C)[C@H](NC(=O)[C@H](Cc1ccccc1)NC(=O)[C@H](CC(C)C)NC(=O)[C@@H](Cc1ccccc1)NC(C)=O)C(=O)N[C@H](C(=O)N[C@@H](Cc1c[nH]c2ccccc12)C(=O)O)[C@@H](C)CC (Ac-[dF]LFIIW-OH) | 0.38 µM | 0.036 | –
27 | CC[C@H](C)[C@H](NC(=O)[C@H](CC(=O)O)NC(=O)[C@H](CCCN)NC(=O)[C@@H](Cc1ccccc1)NC(C)=O)C(=O)N[C@H](C(=O)N[C@@H](Cc1c[nH]c2ccccc12)C(=O)O)[C@@H](C)CC (Ac-[dF][Orn]DIIW-OH) | 0.68 µM | 2.45 | –
28 | CC[C@H](C)[C@H](NC(=O)[C@H](CC(=O)O)NC(=O)[C@H](CC(C)C)NC(=O)[C@@H](Cc1ccc(O)cc1)NC(C)=O)C(=O)N[C@H](C(=O)N[C@@H](Cc1c[nH]c2ccccc12)C(=O)O)[C@@H](C)CC (Ac-[dY]LDIIW-OH) | – | 7 | 0.25
29 | CC[C@H](C)[C@H](NC(=O)[C@H](CC(=O)O)NC(=O)[C@H](CC(C)C)NC(=O)[C@@H](Cc1ccccc1)NC(C)=O)C(=O)N[C@H](C(=O)NC(Cc1cnc[nH]1)C(=O)O)[C@@H](C)CC (mixture of isomers) | – | > 10 | –
30 | CC[C@H](C)[C@H](NC(=O)[C@H](CC(=O)O)NC(=O)[C@H](Cc1ccccc1)NC(=O)[C@@H](Cc1ccccc1)NC(C)=O)C(=O)N[C@H](C(=O)N[C@@H](Cc1c[nH]c2ccccc12)C(=O)O)[C@@H](C)CC (stereo in doubt; 20) | 0.33 µM | 0.06 | –
31 | CC[C@H](C)[C@H](NC(=O)[C@H](CC(=O)O)NC(=O)[C@H](Cc1ccccc1)NC(=O)[C@@H](Cc1ccccc1)NC(C)=O)C(=O)N[C@H](C(=O)N[C@@H](Cc1c[nH]c2ccccc12)C(=O)O)[C@@H](C)CC (stereo in doubt; 21) | – | 0.02 | 2.2
32 | Ac-FLDIIW-OH | – | 18.5 | –

Reference: ChEMBL document CHEMBL1127071, “Structure-activity relationships of C-terminal endothelin hexapeptide antagonists” (J Med Chem, 1993)
